Source: ChEMBL document CHEMBL5724914, “Linking interpersonal differences in gut microbiota composition and drug biotransformation activity” (2024)

Assays:
[1] = human gut metagenome, 24 h, 2 µM
[2] = human gut metagenome, 24 h, 2 µM; remark: listed apart in the source
[3] = human gut metagenome, 24 h, 2 µM; remark: listed apart in the source
[4] = The drug is tested on Z-023 corresponding to metagenome with ENA study accession number: PRJEB37062 and ENA sample accession number: ERS12561822 for biotransformation under anaerobic condition. The drug concentrations were measured over 9 timepoints collected between 0 and 24 hours of incubation by liquid-chromatography-coupled mass spectrometry (LC–MS); settings: 2 µM
[5] = human gut metagenome, 24 h, 2 µM; remark: listed apart in the source
[6] = human gut metagenome, 24 h, 2 µM; remark: listed apart in the source
[7] = human gut metagenome, 24 h, 2 µM; remark: listed apart in the source
[8] = The drug is tested on Z-027 corresponding to metagenome with ENA study accession number: PRJEB37062 and ENA sample accession number: ERS12561826 for biotransformation under anaerobic condition. The drug concentrations were measured over 9 timepoints collected between 0 and 24 hours of incubation by liquid-chromatography-coupled mass spectrometry (LC–MS); settings: 2 µM
[9] = The drug is tested on Z-010 corresponding to metagenome with ENA study accession number: PRJEB37062 and ENA sample accession number: ERS12561810 for biotransformation under anaerobic condition. The drug concentrations were measured over 9 timepoints collected between 0 and 24 hours of incubation by liquid-chromatography-coupled mass spectrometry (LC–MS); settings: 2 µM
[10] = human gut metagenome, 24 h, 2 µM; remark: listed apart in the source
[11] = The drug is tested on Z-022 corresponding to mouse gut metagenome with ENA study accession number: PRJEB37062 and ENA sample accession number: ERS12561821 for biotransformation under anaerobic condition. The drug concentrations were measured over 9 timepoints collected between 0 and 24 hours of incubation by liquid-chromatography-coupled mass spectrometry (LC–MS); settings: 2 µM
[12] = The drug is tested on WLS-350 corresponding to human gut metagenome with ENA study accession number: PRJEB37062 and ENA sample accession number: ERS12561789 for biotransformation under anaerobic condition. The drug concentrations were measured over 9 timepoints collected between 0 and 24 hours of incubation by liquid-chromatography-coupled mass spectrometry (LC–MS); settings: 2 µM
[13] = human gut metagenome, 24 h, 2 µM; remark: listed apart in the source
[14] = human gut metagenome, 24 h, 2 µM; remark: listed apart in the source
[15] = human gut metagenome, 24 h, 2 µM; remark: listed apart in the source
[16] = The drug is tested on Z-021 corresponding to metagenome with ENA study accession number: PRJEB37062 and ENA sample accession number: ERS12561820 for biotransformation under anaerobic condition. The drug concentrations were measured over 9 timepoints collected between 0 and 24 hours of incubation by liquid-chromatography-coupled mass spectrometry (LC–MS); settings: 2 µM
[17] = human gut metagenome, 24 h, 2 µM; remark: listed apart in the source
[18] = human gut metagenome, 24 h, 2 µM; remark: listed apart in the source
[19] = The drug is tested on Z-007 corresponding to rat gut metagenome with ENA study accession number: PRJEB37062 and ENA sample accession number: ERS12561807 for biotransformation under anaerobic condition. The drug concentrations were measured over 9 timepoints collected between 0 and 24 hours of incubation by liquid-chromatography-coupled mass spectrometry (LC–MS); settings: 2 µM
[20] = The drug is tested on WLS-007 corresponding to human gut metagenome with ENA study accession number: PRJEB37062 and ENA sample accession number: ERS12561742 for biotransformation under anaerobic condition. The drug concentrations were measured over 9 timepoints collected between 0 and 24 hours of incubation by liquid-chromatography-coupled mass spectrometry (LC–MS); settings: 2 µM
Further: call rule not given here.

| Compound | Bacterial Biotransformation [1] | Bacterial Biotransformation [2] | Bacterial Biotransformation [3] | Bacterial Biotransformation [4] | Bacterial Biotransformation [5] | Bacterial Biotransformation [6] | Bacterial Biotransformation [7] | Bacterial Biotransformation [8] | Bacterial Biotransformation [9] | Bacterial Biotransformation [10] | Bacterial Biotransformation [11] | Bacterial Biotransformation [12] | Bacterial Biotransformation [13] | Bacterial Biotransformation [14] | Bacterial Biotransformation [15] | Bacterial Biotransformation [16] | Bacterial Biotransformation [17] | Bacterial Biotransformation [18] | Bacterial Biotransformation [19] | Bacterial Biotransformation [20] |
| --- | --- | --- | --- | --- | --- | --- | --- | --- | --- | --- | --- | --- | --- | --- | --- | --- | --- | --- | --- | --- |
| CC(C)c1nc(CN(C)C(=O)N[C@H](C(=O)N[C@@H](Cc2ccccc2)C[C@H](O)[C@H](Cc2ccccc2)NC(=O)OCc2cncs2)C(C)C)cs1 [RITONAVIR] | Compound NOT metabolized | Compound metabolized | Compound metabolized | Compound metabolized | Compound metabolized | Compound NOT metabolized | Compound metabolized | Compound metabolized | Compound metabolized | Compound NOT metabolized | Compound NOT metabolized | Compound NOT metabolized | Compound metabolized | Compound metabolized | Compound NOT metabolized | Compound NOT metabolized | Compound NOT metabolized | Compound NOT metabolized | Compound NOT metabolized | Compound metabolized |
| CC(C)NCC(O)c1ccc(NS(C)(=O)=O)cc1 (stereo not given) [SOTALOL] | Compound NOT metabolized | Compound NOT metabolized | Compound NOT metabolized | Compound NOT metabolized | Compound NOT metabolized | Compound NOT metabolized | Compound NOT metabolized | Compound NOT metabolized | Compound NOT metabolized | Compound NOT metabolized | Compound NOT metabolized | Compound NOT metabolized | Compound NOT metabolized | Compound NOT metabolized | Compound NOT metabolized | Compound NOT metabolized | Compound NOT metabolized | Compound NOT metabolized | Compound NOT metabolized | Compound NOT metabolized |
| CCN1CCCC1CNC(=O)c1cc(S(N)(=O)=O)ccc1OC (stereo not given) [SULPIRIDE] | Compound NOT metabolized | Compound NOT metabolized | Compound NOT metabolized | Compound NOT metabolized | Compound metabolized | Compound NOT metabolized | Compound metabolized | Compound NOT metabolized | Compound metabolized | Compound metabolized | Compound NOT metabolized | Compound NOT metabolized | Compound metabolized | Compound NOT metabolized | Compound NOT metabolized | Compound NOT metabolized | Compound NOT metabolized | Compound NOT metabolized | Compound NOT metabolized | Compound NOT metabolized |
| CNS(=O)(=O)Cc1ccc2[nH]cc(CCN(C)C)c2c1.O=C(O)CCC(=O)O [SUMATRIPTAN SUCCINATE] | Compound NOT metabolized | Compound NOT metabolized | Compound NOT metabolized | Compound NOT metabolized | Compound metabolized | Compound NOT metabolized | Compound metabolized | Compound NOT metabolized | Compound NOT metabolized | Compound metabolized | Compound NOT metabolized | Compound NOT metabolized | Compound NOT metabolized | Compound NOT metabolized | Compound NOT metabolized | Compound NOT metabolized | Compound NOT metabolized | Compound NOT metabolized | Compound NOT metabolized | Compound NOT metabolized |
| Nc1c2c(nc3ccccc13)CCCC2 [TACRINE] | Compound NOT metabolized | Compound NOT metabolized | Compound NOT metabolized | Compound NOT metabolized | Compound metabolized | Compound NOT metabolized | Compound NOT metabolized | Compound NOT metabolized | Compound NOT metabolized | Compound NOT metabolized | Compound NOT metabolized | Compound NOT metabolized | Compound NOT metabolized | Compound NOT metabolized | Compound NOT metabolized | Compound NOT metabolized | Compound NOT metabolized | Compound NOT metabolized | Compound NOT metabolized | Compound NOT metabolized |
